This note sets out measurements from DBAASP.

Some test systems named below: Escherichia coli K88; Pseudomonas aeruginosa 1; Candida albicans; Pseudomonas aeruginosa; Pseudomonas aeruginosa 2.
Holding throughout (experiment): ≥ marks a high value that may be exact or a test limit, other limits are often not marked, values filed in µg/mL are converted to µM
The subject of assay [1] is Streptococcus agalactiae BNCC 185941.
In assay [2] the test system is Staphylococcus aureus ATCC 29213.
Assay [3] relates to Pseudomonas aeruginosa ATCC 27853.
Assay [4] has as its system Lacticaseibacillus rhamnosus 1.0936.
In assay [5] the test system is Escherichia coli O157:H7 CICC 21530.
Assay [6] has as its system Staphylococcus epidermidis ATCC 12228.
The subject of assay [7] is Staphylococcus aureus ATCC 43300.
In assay [8] the test system is Salmonella enterica subsp. enterica serovar Pullorum C79-13.
For assay [9], the system named is Lacticaseibacillus rhamnosus 8014.
The test system of assay [10] is Lacticaseibacillus rhamnosus 1.0911.
Assay [11] relates to Pseudomonas aeruginosa PAO1.
In assay [12] the test system is Salmonella enterica subsp. enterica serovar Choleraesuis CVCC 503.
Assay [13] concerns Salmonella enterica subsp. enterica serovar Typhimurium ATCC 14028.
The test system of assay [14] is Lacticaseibacillus rhamnosus 1.9021.
Assay [15] concerns Salmonella typhimurium KCTC 1926.
The subject of assay [16] is Acinetobacter baumannii CCARM 12035.
In assay [17] the test system is Bacillus subtilis KCTC 3068.
The subject of assay [18] is Escherichia coli CCARM 1229.
Assay [19] has as its system Salmonella typhimurium CCARM 8009.
Assay [20] deals with Staphylococcus aureus KCTC 1621.
In assay [21] the test system is Pseudomonas aeruginosa CCARM 2095.
The test system of assay [22] is Enterococcus faecalis KCTC 2011.
For assay [23], the system named is Pseudomonas aeruginosa KCTC 1637.
Assay [24] has as its system Escherichia coli KCTC 1682.
In assay [25] the test system is Pseudomonas aeruginosa H1001.
The test system of assay [26] is Pseudomonas aeruginosa ATCC 15692.
For assay [27], the system named is Corynebacterium jeikeium ATCC BAA-949.

The structures appear in SMILES notation. Values after ≈ are worked out from the molar mass of the structure shown.

As usually defined, the MIC is the smallest concentration in the dilution series that meets the test's criterion for growth inhibition. Higher therefore signals weaker potency. `CC(C)C[C@H](NC(=O)CNC(=O)[C@H](CCCCN)NC(=O)[C@H](CC(C)C)NC(=O)[C@H](CC(C)C)NC(=O)[C@H](CCCCN)NC(=O)[C@@H](N)CCCCN)C(=O)N[C@@H](CC(C)C)C(=O)N[C@@H](CCCCN)C(=O)NCC(=O)N[C@@H](Cc1c[nH]c2ccccc12)C(N)=O` [KKLLKGLLKGW]: the MIC is not below 128 µM in assay [1]; more than 128 µM in [2]; 16 µM (≈ 20.5 µg/mL) against Escherichia coli K88; 32 µM (≈ 41 µg/mL) in assay [3]; not below 128 µM in assay [4]; not below 64 µM in [5]. The MIC in assay [6] was more than 128 µM; in assay [7], more than 128 µM; in [8], not below 32 µM; in [9] it was not below 128 µM; in assay [10], not below 128 µM; in [11] it was 64 µM (≈ 82.1 µg/mL). For the same compound, the MIC is not below 64 µM in [12], 32 µM (≈ 41 µg/mL) in assay [13] and not below 128 µM in assay [14].

As to `CC[C@H](C)[C@H](NC(=O)CNC(=O)[C@H](CC(=O)O)NC(=O)[C@H](CCCN=C(N)N)NC(=O)[C@@H](NC(=O)[C@H](CC(N)=O)NC(=O)[C@H](CCCN=C(N)N)NC(=O)CNC(=O)[C@@H](NC(=O)[C@H](CCCCN)NC(=O)[C@H](CCC(=O)O)NC(=O)[C@@H](NC(=O)[C@H](CCCCN)NC(=O)[C@H](CCCCN)NC(=O)[C@H](Cc1c[nH]c2ccccc12)NC(=O)[C@@H](NC(=O)[C@H](CCCCN)NC(=O)[C@H](Cc1ccccc1)NC(=O)[C@@H](N)CCCN=C(N)N)[C@@H](C)CC)[C@@H](C)CC)C(C)C)C(C)C)C(=O)N[C@H](C(=O)N[C@@H](CCCCN)C(=O)N[C@@H](C)C(N)=O)[C@@H](C)CC` [RFKIWKKIEKVGRNVRDGIIKA], the MIC in [15] turned out to be 2 µM (≈ 5.31 µg/mL); in [16], 4 µM (≈ 10.6 µg/mL); in [17], 8 µM (≈ 21.2 µg/mL); in [18], 2 µM (≈ 5.31 µg/mL); in [19] it was 2 µM (≈ 5.31 µg/mL); in assay [20], 16 µM (≈ 42.5 µg/mL). The MIC in assay [21] is 2 µM (≈ 5.31 µg/mL); in [22] it was not below 64 µM; in assay [23], 2 µM (≈ 5.31 µg/mL); in assay [24] it was 1 µM (≈ 2.65 µg/mL).

`CC[C@H](C)[C@H](NC(=O)[C@H](CCCN=C(N)N)NC(=O)[C@H](CCCN=C(N)N)NC(=O)[C@@H]1CCCN1C(=O)[C@@H]1CCCN1C(=O)[C@H](CCCN=C(N)N)NC(=O)[C@@H]1CCCN1C(=O)[C@H](CCCN=C(N)N)NC(=O)[C@@H]1CCCN1C(=O)[C@H](CC(C)C)NC(=O)[C@H](Cc1ccc(O)cc1)NC(=O)[C@@H]1CCCN1C(=O)[C@@H]1CCCN1C(=O)[C@H](CCCCN)NC(=O)[C@H](CC(=O)O)NC(=O)[C@@H](N)C(C)C)C(=O)N[C@@H](Cc1ccc(O)cc1)C(=O)N[C@@H](Cc1ccc(O)cc1)C(=O)N[C@@H](CCCN=C(N)N)C(=O)NCC(=O)O` [VDKPPYLPRPRPPRRIYYRG]: the MIC in [25] amounted to 0.12 µM (≈ 0.3 µg/mL).

Regarding `CC[C@H](C)[C@H](NC(=O)[C@H](C)NC(=O)[C@H](CC(N)=O)NC(=O)[C@@H](N)CCSC)C(=O)N[C@@H](CCCCN)C(=O)N[C@@H](CC(C)C)C(=O)N[C@@H](CC(C)C)C(=O)N[C@@H](CS)C(=O)N[C@@H](CCCN=C(N)N)C(=O)N[C@H](C(=O)O)C(C)C` [MNAIKLLCRV], in [25], the MIC was 21.5 µM (≈ 25 µg/mL).

`CC[C@H](C)[C@H](NC(=O)CNC(=O)[C@H](CC(=O)O)NC(=O)[C@H](CCCN=C(N)N)NC(=O)[C@@H](NC(=O)[C@H](CC(N)=O)NC(=O)[C@H](CCCN=C(N)N)NC(=O)CNC(=O)[C@@H](NC(=O)[C@H](CCCCN)NC(=O)[C@H](CCC(=O)O)NC(=O)[C@@H](NC(=O)[C@H](CCCCN)NC(=O)[C@H](CCCCN)NC(=O)[C@H](Cc1ccccc1)NC(=O)[C@@H](NC(=O)[C@H](CCCCN)NC(=O)[C@H](C)NC(=O)[C@@H](N)CCCN=C(N)N)[C@@H](C)CC)[C@@H](C)CC)C(C)C)C(C)C)C(=O)N[C@H](C(=O)N[C@@H](CCCCN)C(=O)N[C@@H](C)C(N)=O)[C@@H](C)CC` [RAKIFKKIEKVGRNVRDGIIKA]: the MIC in assay [15] is 4 µM (≈ 10.2 µg/mL); in [16] it was 8 µM (≈ 20.3 µg/mL); in assay [17], not below 32 µM; in [18] it was 2 µM (≈ 5.08 µg/mL); in [19] it was 2 µM (≈ 5.08 µg/mL); in [20], not below 32 µM. The MIC in assay [21] is 4 µM (≈ 10.2 µg/mL); in assay [22], not below 128 µM; in assay [23] it was 4 µM (≈ 10.2 µg/mL); in assay [24], 2 µM (≈ 5.08 µg/mL).

Consider `CC(C)C[C@H](NC(=O)CNC(=O)[C@H](CC(C)C)NC(=O)[C@H](Cc1c[nH]c2ccccc12)NC(=O)[C@H](CC(C)C)NC(=O)CNC(=O)[C@H](CC(C)C)NC(=O)[C@H](CCCCN)NC(=O)[C@H](CCCCN)NC(=O)CN)C(=O)N[C@@H](CCCCN)C(=O)N[C@@H](CCCCN)C(=O)NCC(N)=O` [GKKLGLWLGLKKG], for which the MIC in [1] is not below 128 µM; in assay [2], more than 128 µM; in the assay on Escherichia coli K88, 4 µM (≈ 5.59 µg/mL); in assay [3] it was 16 µM (≈ 22.3 µg/mL); in assay [4] it was not below 128 µM; in assay [5], 8 µM (≈ 11.2 µg/mL). Further, the MIC is more than 128 µM in assay [6]; more than 128 µM in [7]; 16 µM (≈ 22.3 µg/mL) in assay [8]; not below 128 µM in assay [9]; not below 128 µM in [10]; 32 µM (≈ 44.7 µg/mL) in assay [11]. The MIC is not below 32 µM in assay [12], 32 µM (≈ 44.7 µg/mL) in [13] and not below 128 µM in [14].

On to `CC[C@H](C)[C@H](NC(=O)CN)C(=O)N[C@@H](Cc1ccccc1)C(=O)N[C@@H](CO)C(=O)N[C@@H](CCCCN)C(=O)N[C@@H](CC(C)C)C(=O)N[C@@H](C)C(=O)NCC(=O)N[C@@H](CCCCN)C(=O)N[C@@H](CCCCN)C(=O)N[C@@H](CC(C)C)C(=O)N[C@@H](CCCCN)C(=O)N[C@@H](CC(N)=O)C(=O)N[C@@H](CC(C)C)C(=O)N[C@@H](CC(C)C)C(=O)N[C@H](C(=O)N[C@@H](CO)C(=O)NCC(N)=O)[C@@H](C)CC` [GIFSKLAGKKLKNLLISG], for which the MIC in assay [3] was 8 µM (≈ 15.1 µg/mL); in the assay on Pseudomonas aeruginosa 1, 8 µM (≈ 15.1 µg/mL); in assay [26] it was 8 µM (≈ 15.1 µg/mL); in the assay with Candida albicans, 2.83 µM (≈ 5.34 µg/mL); in assay [27], 4 µM (≈ 7.55 µg/mL); against Pseudomonas aeruginosa, 8 µM (≈ 15.1 µg/mL). In addition, the MIC in assay [11] came to 8 µM (≈ 15.1 µg/mL); against Pseudomonas aeruginosa 2, 16 µM (≈ 30.2 µg/mL).
